Test results as given in patent publication US20030215817A1, “Modulation of gene expression in formation of fatty atherosclerotic lesions” (priority 2003, published 2003).
Counter-ions that a name gives are not always drawn.

Tests used:
Assay type in all cases: in vivo, rabbit
[1] = system: REC1_3 (MspI ACGG 162) mRNA; test: TOGA analysis, REC1_3
Experimental: (§1) To perform the studies, New Zealand male rabbits weighing 2.0-2.5 kg (Charles River, Calco, Italy) were used. The rabbits were divided into three groups and maintained in identical experimental conditions: (1) control group (n=15); rabbits fed a cholesterol-rich diet; (2) lercanidipine-treated group (n=15); rabbits fed a cholesterol-rich diet and also treated with lercanidipine (3 mg/kg/week); and (3) (R)-lercanidipine-treated group (n=5); rabbits fed a cholesterol-rich diet and also treated with the (R)-enantiomer of lercanidipine (3 mg/kg/week). After a 2 week period of subcutaneous, once a week, pretreatment with 3 mg/kg/week of lercanidipine or (R)-lercanidipine, the rabbits received a daily cholesterol supplement for up to 8 weeks or 2 weeks, respectively. In the following examples, use of the term “lercanidipine” refers to the racemic mixture of lercanidipine hydrochloride, whereas “(R)-lercanidipine” refers to the (R)-enantiomer of lercanidipine hydrochloride.
(§2) The mRNA from the above-described groups was isolated from aorta at different time points, resulting in the following mRNA samples: (1) Day 0 Control=no administered cholesterol, no lercanidipine; (2) Day 0+lercanidipine=no administered cholesterol, treatment with lercanipidine (2 weeks; 3 mg/kg/week); (3) Day 14 Control=cholesterol diet for two weeks, no lercanidipine; (4) Day 14+lercanidipine=cholesterol diet for two weeks, treatment with lercanidipine (four weeks; 3 mg/kg/week); (5) Week 8 Control=cholesterol diet for 8 weeks, no lercanidipine; and (6) Week 8+lercanidipine=cholesterol diet for 8 weeks, treatment with lercanidipine (10 weeks; 3 mg/kg/week). In addition, Day 14+(R)-lercanidipine mRNA samples were prepared from rabbits given a cholesterol diet for two weeks and treated with 3 mg/kg/week (R)-lercanidipine for four weeks.
(§3) Aorta mRNAs were prepared in the following manner. First, the aortas from each experimental group were retrieved and shredded using a polytron homogenizer. The samples were further homogenized using a teflon pestle, after which the cellular debris, nuclei, and blood cells were pelleted by centrifugation. The supernatants were extracted twice with phenol-chloroform-isoamyl alcohol and once with chloroform-isoamyl alcohol. RNA was then precipitated from the aqueous phase with ethanol. The poly A+ mRNA was prepared using standard methods of polyA selection known in the art (Schriber et al., J. Mol. Biol., 142:93-116 (1980)).
(§4) The isolated mRNA was analyzed using a method of simultaneous sequence-specific identification of mRNAs known as TOGA, described in U.S. Pat. No. 5,459,037 and U.S. Pat. No. 5,807,680, hereby incorporated herein by reference. In a preferred embodiment, the TOGA method further comprised an additional PCR step performed using a mixture of four 5′ PCR primers and cDNA templates prepared from a population of antisense cRNAs. A final PCR step that used a mixture of 256 5′ PCR primers produced PCR products that were cDNA fragments that corresponded to the 3′-region of the starting mRNA population. The produced PCR products were then identified by: (a) the initial 5′ sequence comprising the sequence remainder of the recognition site of the restriction endonuclease used to cut and isolate the 3′ region plus the sequence of the preferably four parsing bases immediately 3′ to the remainder of the recognition site, preferably the sequence of the entire fragment; and (b) the length of the fragment. […]

REC1_19 (TGTT 393) mRNA = test: TOGA analysis, REC1_19
Experimental: as §1, §2, §3, §4

REC1_16 (TCGG 195) mRNA = test: TOGA analysis, REC1_16
Experimental: as §1, §2, §3, §4

[2] = system: REC1_18 (MspI TGGT 241) mRNA; test: TOGA analysis, REC1_18
Experimental: as §1, §2, §3, §4

[3] = system: REC1_8 (MspI CCCG 243) mRNA; test: TOGA analysis, REC1_8
Experimental: as §1, §2, §3, §4

[4] = system: REC1_21 (TTCC 165) mRNA, elastin gene; test: TOGA analysis, REC1_21
Experimental: as §1, §2, §3, §4

[5] = system: REC1_36 (digital address TTAG 155) mRNA; test: TOGA analysis, REC1_36
Experimental: as §1, §2, §3
The isolated mRNA was analyzed using a method of simultaneous sequence-specific identification of mRNAs known as TOGA, described in U.S. Pat. No. 5,459,037 and U.S. Pat. No. 5,807,680, hereby incorporated herein by reference. In a preferred embodiment, the TOGA method further comprised an additional PCR step performed using a mixture of four 5′ PCR primers and cDNA templates prepared from a population of antisense cRNAs. A final PCR step that used a mixture of 256 5′ PCR primers produced PCR products that were cDNA fragments that corresponded to the 3′-region of the starting mRNA population. The produced PCR products were then identified by: (a) the initial 5′ sequence comprising the sequence remainder of the recognition site of the restriction endonuclease used to cut and isolate the 3′ region plus the sequence of the preferably four parsing bases immediately 3′ to the remainder of the recognition site, preferably the sequence of the entire fragment; and (b) the length of the fragment. These two parameters, sequence and fragment length, were used to compare the obtained PCR products to a database of known polynucleotide sequences. Since the length of the obtained PCR products includes known vector sequences at the 5′ and 3′ ends of the insert, the sequence of the insert provided in the sequence listing is shorter than the fragment length that forms part of the digital address.
The method yields Digital Sequence Tags (DSTs), that is, polynucleotides that are expressed sequence tags of the 3′ end of mRNAs. […]

[6] = system: REC1_13 (MspI GCCC 216) mRNA; test: TOGA analysis, REC1_13
Experimental: as §1, §2, §3, §4

REC1_5 (AGTG 184) mRNA = test: TOGA analysis, REC1_5
Experimental: as §1, §2, §3, §4

[7] = system: REC1_2 (MspI AATC 108) mRNA; test: TOGA analysis, REC1_2
Experimental: as §1, §2, §3, §4

[8] = system: REC1_20 (TTAC 210) mRNA, phosphofructo-1-kinase C isozyme; test: TOGA analysis, REC1_20
Experimental: as §1, §2, §3, §4

REC1_17 (TCGT 199) mRNA = test: TOGA analysis, REC1_17
Experimental: as §1, §2, §3, §4

[9] = TOGA, hypercholesterolemic plus lercanidipine racemate, eight weeks, H2 (normocholesterolemic)=1.0

Compound: COC(=O)C1=C(C)NC(C)=C(C(=O)OC(C)(C)CN(C)CCC(c2ccccc2)c2ccccc2)C1c1cccc([N+](=O)[O-])c1 (racemic) [lercanidipine, lercanidipine hydrochloride]
- level of gene expression (TOGA), 8 Week hypercholesterol + Lercanidipine ([1]; REC1_3, ACGG 162, rabbit aorta, 8 weeks cholesterol + lercanidipine): 65
- level of gene expression (TOGA), 14 Day hypercholesterol + Lercanidipine ([1]; REC1_3, ACGG 162, rabbit aorta, 14 days cholesterol + lercanidipine): 68
- level of gene expression (TOGA), Normal + Lercanidipine ([1]; REC1_3, ACGG 162, rabbit aorta, no cholesterol, lercanidipine): 54
- Relative Abundance Rec1_3, TOGA, F [1, 9]: 0.8
- level of gene expression, 8 Week hypercholesterol + Lercanidipine (REC1_19 (TGTT 393) mRNA; REC1_19 TGTT 393, rabbit aorta, cholesterol 8 weeks): 130
- level of gene expression, 14 Day hypercholesterol + Lercanidipine (REC1_19 (TGTT 393) mRNA; REC1_19 TGTT 393, rabbit aorta, cholesterol 14 days): 373
- level of gene expression, Normal + Lercanidipine (REC1_19 (TGTT 393) mRNA; REC1_19 TGTT 393, rabbit aorta, no cholesterol): 569
- Relative Abundance Rec1_19, TOGA, F (REC1_19 (TGTT 393) mRNA; [9]): 0.2
- level of gene expression (TOGA), 8 Week hypercholesterol + Lercanidipine (REC1_16 (TCGG 195) mRNA; REC1_16 TCGG 195, rabbit aorta, 8 weeks cholesterol, lercanidipine): 530
- level of gene expression (TOGA), 14 Day hypercholesterol + Lercanidipine (REC1_16 (TCGG 195) mRNA; REC1_16 TCGG 195, rabbit aorta, 14 days cholesterol, lercanidipine): 1052
- level of gene expression (TOGA), Normal + Lercanidipine (REC1_16 (TCGG 195) mRNA; REC1_16 TCGG 195, rabbit aorta, no cholesterol, lercanidipine): 2028
- Relative Abundance Rec1_16, TOGA, F (REC1_16 (TCGG 195) mRNA; [9]): 0.2
- level of gene expression, 8 Week hypercholesterol + Lercanidipine ([2]; REC1_18 TGGT 241, rabbit aorta, cholesterol 8 weeks): 935
- level of gene expression, 14 Day hypercholesterol + Lercanidipine ([2]; REC1_18 TGGT 241, rabbit aorta, cholesterol 14 days): 112
- level of gene expression, Normal + Lercanidipine ([2]; REC1_18 TGGT 241, rabbit aorta, no cholesterol): 316
- Relative Abundance Rec1_18, TOGA, F [2, 9]: 5.0
- level of gene expression, 8 Week hypercholesterol + Lercanidipine ([3]; REC1_8 CCCG 243, rabbit aorta, 8 weeks cholesterol): 1136
- level of gene expression, 14 Day hypercholesterol + Lercanidipine ([3]; REC1_8 CCCG 243, rabbit aorta, 14 days cholesterol): 373
- level of gene expression, Normal + Lercanidipine ([3]; REC1_8 CCCG 243, rabbit aorta, no cholesterol): 163
- Relative Abundance Rec1_8, TOGA, F [3, 9]: 13.1
- level of gene expression, 8 Week hypercholesterol + Lercanidipine ([4]; REC1_21 TTCC 165, rabbit aorta, cholesterol 8 weeks): 486
- level of gene expression, 14 Day hypercholesterol + Lercanidipine ([4]; REC1_21 TTCC 165, rabbit aorta, cholesterol 14 days): 1507
- level of gene expression, Normal + Lercanidipine ([4]; REC1_21 TTCC 165, rabbit aorta, no cholesterol): 2064
- Relative Abundance Rec1_21, TOGA, F [4, 9]: 0.2
- level of gene expression, 8 Week hypercholesterol + Lercanidipine ([5]; REC1_36 TTAG 155, rabbit aorta, cholesterol 8 weeks): 400
- level of gene expression, 14 Day hypercholesterol + Lercanidipine ([5]; REC1_36 TTAG 155, rabbit aorta, cholesterol 14 days): 683
- level of gene expression, Normal + Lercanidipine ([5]; REC1_36 TTAG 155, rabbit aorta, no cholesterol): 186
- Relative Abundance Rec1_36, TOGA, F [5, 9]: 0.5
- level of gene expression of REC1_36 (TOGA) ([5]; aorta at day 14 of cholesterol administration, 3 mg/kg/week for 4 weeks): 683
- level of gene expression of REC1_36 (TOGA) ([5]; aorta at week 8 of cholesterol administration, 3 mg/kg/week for 10 weeks): 400
- level of gene expression, 8 Week hypercholesterol + Lercanidipine ([6]; REC1_13 GCCC 216, rabbit aorta, 8 weeks cholesterol): 4186
- level of gene expression, 14 Day hypercholesterol + Lercanidipine ([6]; REC1_13 GCCC 216, rabbit aorta, 14 days cholesterol): 542
- level of gene expression, Normal + Lercanidipine ([6]; REC1_13 GCCC 216, rabbit aorta, no cholesterol): 575
- Relative Abundance Rec1_13, TOGA, F [6, 9]: 5.9
- level of gene expression (TOGA), 8 Week hypercholesterol + Lercanidipine (REC1_5 (AGTG 184) mRNA; REC1_5, AGTG 184, rabbit aorta, 8 weeks cholesterol + lercanidipine): 188
- level of gene expression (TOGA), 14 Day hypercholesterol + Lercanidipine (REC1_5 (AGTG 184) mRNA; REC1_5, AGTG 184, rabbit aorta, 14 days cholesterol + lercanidipine): 699
- level of gene expression (TOGA), Normal + Lercanidipine (REC1_5 (AGTG 184) mRNA; REC1_5, AGTG 184, rabbit aorta, no cholesterol, lercanidipine): 1034
- Relative Abundance Rec1_5, TOGA, F (REC1_5 (AGTG 184) mRNA; [9]): 0.2
- level of gene expression (TOGA), 8 Week hypercholesterol + Lercanidipine ([7]; REC1_2, AATC 108, rabbit aorta, 8 weeks cholesterol + lercanidipine): 1143
- level of gene expression (TOGA), 14 Day hypercholesterol + Lercanidipine ([7]; REC1_2, AATC 108, rabbit aorta, 14 days cholesterol + lercanidipine): 545
- level of gene expression (TOGA), Normal + Lercanidipine ([7]; REC1_2, AATC 108, rabbit aorta, no cholesterol, lercanidipine): 301
- Relative Abundance Rec1_2, TOGA, F [7, 9]: 6.5
- level of gene expression, 8 Week hypercholesterol + Lercanidipine ([8]; REC1_20 TTAC 210, rabbit aorta, cholesterol 8 weeks): 260
- level of gene expression, 14 Day hypercholesterol + Lercanidipine ([8]; REC1_20 TTAC 210, rabbit aorta, cholesterol 14 days): 348
- level of gene expression, Normal + Lercanidipine ([8]; REC1_20 TTAC 210, rabbit aorta, no cholesterol): 607
- Relative Abundance Rec1_20, TOGA, F [8, 9]: 0.3
- level of gene expression (TOGA), 8 Week hypercholesterol + Lercanidipine (REC1_17 (TCGT 199) mRNA; REC1_17 TCGT 199, rabbit aorta, 8 weeks cholesterol, lercanidipine): 262
- level of gene expression (TOGA), 14 Day hypercholesterol + Lercanidipine (REC1_17 (TCGT 199) mRNA; REC1_17 TCGT 199, rabbit aorta, 14 days cholesterol, lercanidipine): 713
- level of gene expression (TOGA), Normal + Lercanidipine (REC1_17 (TCGT 199) mRNA; REC1_17 TCGT 199, rabbit aorta, no cholesterol, lercanidipine): 1434
- Relative Abundance Rec1_17, TOGA, F (REC1_17 (TCGT 199) mRNA; [9]): 0.15
